Test results as given in paper PMC8443589, “Modelling human liver fibrosis in the context of non-alcoholic steatohepatitis using a microphysiological system” (Communications Biology, 2021).

Legend:
[1] = clinical dose, cited from earlier work; for Cmax: read-out: Plasma Cmax
[2] = Protein binding in HEP-Fat cell culture media by rapid equilibrium dialysis; format: in vitro ADME; settings: for fraction unbound: HEP-Fat cell culture media, HEP-FAT media, rapid-equilibrium dialysis
Method: Despite many on-going clinical trials, there is still no approved treatment for NASH, but emerging data provide confidence that NASH is a pharmacologically responsive disease. […] First, we set out to determine an optimal dosing strategy for each of the treatments based on an assessment of their physicochemical properties and pharmacokinetic behaviour within the MPS device (Table 1). Non-specific binding to the MPS device was determined after a 72 h incubation with each candidate drug at 1 μM (Table 1). Both candidate drugs were calculated to have less than 0.1% loss as a consequence of non-specific binding to the MPS device (Table 1). […] Because the hepatocytes within the MPS device are metabolically competent, we evaluated the half-life for each candidate drug in NASH microtissues.
To determine the metabolic turnover of obeticholic acid and elafibranor in the MPS platform, both compounds were incubated with liver microtissues for 48 h starting at 1 µM and media samples taken at regular intervals (AdooQ Bioscience, UK). The presence of each compound in the cell culture medium was quantified by liquid chromatography-tandem mass spectrometry (LC-MS/MS). Samples were separated using a Waters Acquity UPLC system with an ACE Excel C18-AR column and analysed on a Waters TQ-S Micro mass spectrometer against quantitative standard curves. Both compounds were also assessed for protein binding in HEP-Fat media using rapid equilibrium dialysis (RED) and quantified using the same LC-MS/MS methodology.

[3] = tested on: liver MPS NASH model (PHH, KC and HSC co-cultures, high fat); test: Cell health in dosed NASH microtissues: tissue density (Hoechst) and albumin production (ELISA); format: cell-based, human; settings: for cytotoxicity in NASH microtissues: QD for 10 days
Method: Following 10 days of compound treatment (Supp. Fig. 6a), NASH microtissues were assessed for the production of inflammatory and fibrotic biomarkers (Fig. 3a), the expression of pro-fibrotic genes (Fig. 3b) and the expression of collagen-1 and alpha SMA (Fig. 3c, d). […] Crucially using the developed quantitative imaging approach, both OCA and ELF abrogated α-SMA expression in a concentration-dependent manner by up to 50% and collagen-1 deposition was reduced by up to 35% (Fig. 3d).
Soluble biomarkers in cell culture medium from the MPS were analysed by enzyme-linked immunosorbent assay (ELISA); IL-6 was measured by Human IL-6 DuoSet ELISA (R&D Systems); MCP-1 was measured by Human CCL2/MCP-1 DuoSet ELISA (R&D Systems); pro-collagen 1 was measured by Human Pro-Collagen I α1 DuoSet (R&D Systems); TIMP-1 was measured by Human TIMP-1 Quantikine ELISA Kit (R&D Systems); Fibronectin was measured by Human Fibronectin DuoSet ELISA (R&D Systems); YKL-40 was measured by Human Chitinase 3-like 1 Quantikine ELISA Kit (R&D Systems); Albumin secretion was measured by Human Albumin AssayMax™ ELISA kit (Assay Pro, St. Charles, MO). For all assays, the manufacturer’s protocol was followed.
Supplemental Figure 6 – Treatment of NASH microtissues in MPS platform with Obeticholic acid and […]
PHH, KC and HSC co-cultures were cultured in the MPS platform under high fat conditions and dosed with varying concentrations of Obeticholic acid (OCA) and Elafibranor (ELF) dosed QD for 10 days, following an initial 4-day pre-culture phase. A) Overview of the experimental timeline. B) Tissue density of scaffolds from each control was assessed by quantifying Hoechst staining in each FOV (8 FOV per culture) at the end of the study. C) Albumin production between conditions was compared by ELISA at two timepoints. All datapoint are shown and error bars highlight means ± SD.
(1 picture or pasted object on this page, not shown here)

[4] = Non-specific compound binding: drug recovery in blank liver MPS plates (no cells), LC-MS; format: in vitro ADME; settings: blank liver MPS platform/plates, vs input media, read-out: Drug recovery incubation in blank MPS platform (no cells)

Row | Structure (SMILES) | liver Cmax [1] [µM] | Cmax [1] [µM] | fraction unbound [2] | Protein binding within the fat culture medium [2] | cytotoxicity in NASH microtissues [3] | recovery at 1 µM [4] [%] | Albumin production ([3]; higher doses, 10 days of compound treatment)
1 | CC[C@H]1[C@@H](O)[C@@H]2[C@H](CC[C@]3(C)[C@@H]([C@H](C)CCC(=O)O)CC[C@@H]23)[C@@]2(C)CC[C@@H](O)C[C@@H]12 [Obeticholic acid] | 12.5 | 0.5 | < 0.01 | highly protein-bound | does not cause cytotoxicity | 110 | 
2 | CSc1ccc(C(=O)/C=C/c2cc(C)c(OC(C)(C)C(=O)O)c(C)c2)cc1 [Elafibranor] |  | 13 | 0.02 | highly protein-bound | does not cause cytotoxicity | 97 | slightly reduce albumin production
